Columns and labels:
HDAC6 [1] = molecular target: T1, HDAC6 (Homo sapiens, UniProt Q9UBN7); experiment: Preincubation HDAC inhibition assay, HDAC6; format: biochemical; conditions: preincubation 1 h at 25 °C
T1 sequence (Q9UBN7 1-1215): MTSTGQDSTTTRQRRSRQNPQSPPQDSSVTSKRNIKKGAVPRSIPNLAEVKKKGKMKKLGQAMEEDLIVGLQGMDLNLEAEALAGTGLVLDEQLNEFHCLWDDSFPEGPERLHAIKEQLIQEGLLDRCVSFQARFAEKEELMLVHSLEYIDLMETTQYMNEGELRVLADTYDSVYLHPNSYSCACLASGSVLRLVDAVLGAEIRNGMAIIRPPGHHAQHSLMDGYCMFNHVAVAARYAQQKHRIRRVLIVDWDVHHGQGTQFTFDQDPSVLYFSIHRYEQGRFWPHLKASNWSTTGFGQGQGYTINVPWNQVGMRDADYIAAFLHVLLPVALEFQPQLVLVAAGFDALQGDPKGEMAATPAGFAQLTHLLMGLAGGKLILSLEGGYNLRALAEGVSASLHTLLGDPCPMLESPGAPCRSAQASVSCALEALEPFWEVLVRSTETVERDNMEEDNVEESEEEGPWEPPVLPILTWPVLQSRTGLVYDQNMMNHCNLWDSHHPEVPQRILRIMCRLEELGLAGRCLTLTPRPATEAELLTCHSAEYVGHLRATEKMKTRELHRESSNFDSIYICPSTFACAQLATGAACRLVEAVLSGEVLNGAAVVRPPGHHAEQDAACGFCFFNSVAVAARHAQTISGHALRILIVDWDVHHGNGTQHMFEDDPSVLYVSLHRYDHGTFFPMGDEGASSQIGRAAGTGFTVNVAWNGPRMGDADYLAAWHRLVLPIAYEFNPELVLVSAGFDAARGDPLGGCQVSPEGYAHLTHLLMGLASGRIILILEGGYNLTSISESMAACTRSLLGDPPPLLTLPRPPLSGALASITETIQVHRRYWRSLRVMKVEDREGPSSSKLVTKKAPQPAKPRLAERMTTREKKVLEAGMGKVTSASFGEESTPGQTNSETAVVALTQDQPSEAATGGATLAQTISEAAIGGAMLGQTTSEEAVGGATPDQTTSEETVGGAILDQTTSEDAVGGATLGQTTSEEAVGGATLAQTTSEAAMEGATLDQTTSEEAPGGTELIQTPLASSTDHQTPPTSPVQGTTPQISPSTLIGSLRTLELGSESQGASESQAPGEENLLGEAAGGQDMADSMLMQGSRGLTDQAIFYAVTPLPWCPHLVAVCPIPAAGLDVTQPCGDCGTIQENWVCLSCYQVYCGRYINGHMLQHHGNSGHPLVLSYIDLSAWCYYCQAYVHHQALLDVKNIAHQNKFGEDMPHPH

HDAC1 = HDAC1 (Homo sapiens, UniProt Q13547); experiment: Preincubation HDAC inhibition assay, HDAC1; format: biochemical; conditions: preincubation 1 h at 25 °C
Chain of HDAC1 (Q13547 whole entry): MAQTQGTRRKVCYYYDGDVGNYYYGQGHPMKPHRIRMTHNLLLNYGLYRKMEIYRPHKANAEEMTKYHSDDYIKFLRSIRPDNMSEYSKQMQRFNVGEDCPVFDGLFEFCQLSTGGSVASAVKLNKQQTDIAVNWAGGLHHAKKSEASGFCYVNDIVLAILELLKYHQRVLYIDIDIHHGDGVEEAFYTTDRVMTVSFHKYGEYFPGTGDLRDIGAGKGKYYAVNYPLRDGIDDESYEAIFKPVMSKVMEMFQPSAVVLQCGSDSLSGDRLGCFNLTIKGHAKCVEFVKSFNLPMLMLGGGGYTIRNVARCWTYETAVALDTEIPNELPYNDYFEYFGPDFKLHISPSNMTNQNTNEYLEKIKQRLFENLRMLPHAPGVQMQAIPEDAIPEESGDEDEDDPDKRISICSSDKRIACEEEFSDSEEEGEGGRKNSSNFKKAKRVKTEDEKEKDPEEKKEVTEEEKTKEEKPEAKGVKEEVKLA

HDAC2 = HDAC2 (Homo sapiens, UniProt Q92769); experiment: Preincubation HDAC inhibition assay, HDAC2; format: biochemical; conditions: preincubation 1 h at 25 °C
Chain of HDAC2 (Q92769 whole entry): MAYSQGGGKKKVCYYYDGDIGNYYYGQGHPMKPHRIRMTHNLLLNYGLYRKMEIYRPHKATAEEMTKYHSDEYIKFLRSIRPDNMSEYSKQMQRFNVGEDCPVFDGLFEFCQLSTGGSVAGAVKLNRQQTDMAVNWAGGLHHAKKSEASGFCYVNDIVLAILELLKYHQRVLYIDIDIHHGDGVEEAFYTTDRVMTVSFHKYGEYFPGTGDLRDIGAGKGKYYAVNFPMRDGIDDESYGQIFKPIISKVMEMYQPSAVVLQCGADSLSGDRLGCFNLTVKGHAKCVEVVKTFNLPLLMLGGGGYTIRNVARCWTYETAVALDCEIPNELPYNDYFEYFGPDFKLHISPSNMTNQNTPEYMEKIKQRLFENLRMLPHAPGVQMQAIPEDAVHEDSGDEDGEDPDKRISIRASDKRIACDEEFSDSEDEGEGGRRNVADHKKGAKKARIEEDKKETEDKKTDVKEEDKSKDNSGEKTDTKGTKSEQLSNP

HDAC4 = HDAC4 (Homo sapiens, UniProt P56524); experiment: Preincubation HDAC inhibition assay, HDAC4; format: biochemical; conditions: preincubation 1 h at 25 °C
Chain of HDAC4 (P56524 whole entry): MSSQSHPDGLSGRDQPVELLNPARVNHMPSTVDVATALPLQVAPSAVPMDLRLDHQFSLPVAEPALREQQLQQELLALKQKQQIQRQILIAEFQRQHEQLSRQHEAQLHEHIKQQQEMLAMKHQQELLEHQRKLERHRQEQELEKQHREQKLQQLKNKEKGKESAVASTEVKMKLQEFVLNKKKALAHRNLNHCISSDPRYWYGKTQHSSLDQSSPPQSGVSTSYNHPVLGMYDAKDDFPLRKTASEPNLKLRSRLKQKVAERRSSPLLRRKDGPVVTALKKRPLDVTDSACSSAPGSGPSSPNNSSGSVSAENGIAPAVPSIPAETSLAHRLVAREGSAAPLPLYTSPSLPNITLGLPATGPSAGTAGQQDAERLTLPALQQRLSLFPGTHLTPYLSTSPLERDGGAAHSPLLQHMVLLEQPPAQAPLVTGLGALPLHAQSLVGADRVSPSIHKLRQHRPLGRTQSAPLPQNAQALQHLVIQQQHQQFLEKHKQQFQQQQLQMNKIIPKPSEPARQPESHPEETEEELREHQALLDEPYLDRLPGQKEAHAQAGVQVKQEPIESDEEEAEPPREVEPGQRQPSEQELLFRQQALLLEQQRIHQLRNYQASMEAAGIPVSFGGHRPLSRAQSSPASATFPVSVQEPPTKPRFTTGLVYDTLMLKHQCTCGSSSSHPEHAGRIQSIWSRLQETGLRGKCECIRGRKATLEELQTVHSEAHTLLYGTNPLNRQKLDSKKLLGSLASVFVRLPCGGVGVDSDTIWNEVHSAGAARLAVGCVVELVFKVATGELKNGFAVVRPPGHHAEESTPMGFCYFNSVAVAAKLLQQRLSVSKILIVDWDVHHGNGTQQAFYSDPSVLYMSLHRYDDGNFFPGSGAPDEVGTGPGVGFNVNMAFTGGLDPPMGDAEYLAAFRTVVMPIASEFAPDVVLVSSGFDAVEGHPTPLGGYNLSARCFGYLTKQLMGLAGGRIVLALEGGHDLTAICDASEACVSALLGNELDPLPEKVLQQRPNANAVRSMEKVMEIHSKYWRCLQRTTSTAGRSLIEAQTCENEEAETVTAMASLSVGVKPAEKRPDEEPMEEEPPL

HDAC6 [2] = molecular target: T1, HDAC6; experiment: IC50-shift experiments at HDAC6; format: biochemical; conditions: preincubation 5, 60 and 120 min
HDAC6 [3] = molecular target: T1, HDAC6; experiment: Binding kinetics via the Progression Method at HDAC6; format: biochemical; conditions: progression curves, substrate at five times KM, 37 °C
[4] = LC-MS control: inhibitor in size exclusion buffer without enzyme; format: physicochemical; conditions: 100 μM inhibitor in size exclusion buffer only (pH 7.5), overnight

| SMILES | HDAC6 percent inhibition at 10 μM (HDAC6 [1]) | HDAC1 percent inhibition at 10 μM (HDAC1) | HDAC2 percent inhibition at 10 μM (HDAC2) | HDAC4 percent inhibition at 10 μM (HDAC4) | Slow-binding mechanism from kobs vs inhibitor concentration (HDAC6 [3]) | Hydrolysis in the absence of enzyme [4] | Dependence of HDAC6 inhibition on preincubation time (HDAC6 [2]) |
| --- | --- | --- | --- | --- | --- | --- | --- |
| O=C(CCCCCCC(=O)Nc1ccccc1)NO [Vorinostat, reference compound] |  |  |  |  |  |  | did not depend on the preincubation time |
| FC(F)c1nnc(-c2cnc(NCc3ccccc3)nc2)o1 [Compound 6, N-Benzyl-5-[5-(difluoromethyl)-1,3,4-oxadiazol-2-yl]pyrimidin-2-amine] |  | no activity | no activity | no activity | mechanism II | does not undergo hydrolysis | highly dependent on the preincubation time |
| COc1ccc(CNc2ncc(-c3nnc(C(F)F)o3)cn2)cc1 [Compound 7, 5-[5-(Difluoromethyl)-1,3,4-oxadiazol-2-yl]-N-(4-methoxybenzyl)pyrimidin-2-amine] |  | no activity | no activity | no activity |  |  |  |
| CN(C)c1ccc(C(=O)N(CC(=O)NCc2ccccc2)Cc2ccc(-c3nnc(C(F)F)o3)cc2)cc1 [Compound 12, N-[2-(Benzylamino)-2-oxoethyl]-N-{4-[5-(difluoromethyl)-1,3,4-oxadiazol-2-yl]benzyl}−4-(dimethylamino)benzamide] | only moderate inhibitory activity | inactive | inactive | inactive |  |  |  |
| FC(F)(F)c1nnc(-c2cnc(NCc3ccccc3)nc2)o1 [Compound 17, N-Benzyl-5-[5-(trifluoromethyl)-1,3,4-oxadiazol-2-yl]pyrimidin-2-amine] |  | no inhibition | no inhibition | no inhibition | single-step slow-binding mechanism I |  | substantial decrease in the HDAC6 IC50 values upon preincubation |

Continued, in another order:

| HDAC6 percent inhibition at 10 μM (HDAC6 [1]) | HDAC1 percent inhibition at 10 μM (HDAC1) | HDAC2 percent inhibition at 10 μM (HDAC2) | HDAC4 percent inhibition at 10 μM (HDAC4) | Slow-binding mechanism from kobs vs inhibitor concentration (HDAC6 [3]) | Hydrolysis in the absence of enzyme [4] | SMILES | Dependence of HDAC6 inhibition on preincubation time (HDAC6 [2]) |
| --- | --- | --- | --- | --- | --- | --- | --- |
| only moderate inhibitory activity | inactive | inactive | inactive |  |  | CCCCN(Cc1ccc(-c2nnc(C(F)F)o2)cc1)C(=O)c1ccccc1 [Compound 10, N-Butyl-N-{4-[5-(difluoromethyl)-1,3,4-oxadiazol-2-yl]benzyl}benzamide] |  |
| only moderate inhibitory activity | inactive | inactive | inactive |  |  | CCCCN(Cc1ccc(-c2nnc(C(F)F)o2)cc1)C(=O)Nc1ccccc1 [Compound 9, 1-Butyl-1-{4-[5-(difluoromethyl)-1,3,4-oxadiazol-2-yl]benzyl}−3-phenylurea] |  |
| does not show any inhibitory activity |  |  |  |  |  | O=C(NNC(=O)C(F)F)c1cnc(NCc2ccccc2)nc1 [Compound 13, 2-(Benzylamino)-N’-(2,2-difluoroacetyl)pyrimidine-5-carbohydrazide] |  |

Reference: article PMC10591924 (Journal of medicinal chemistry, 2023)
